Laboratory results published in ChEMBL document CHEMBL1152087, “Inhibition of mevalonate 5-pyrophosphate decarboxylase by a proline-containing transition state analog” (Bioorg Med Chem Lett, 1996).

Legend:
[1] = target: T1, Diphosphomevalonate decarboxylase (Homo sapiens, UniProt P53602); experiment: Compound was evaluated for its inhibitory activity against Mevalonate 5-pyrophosphate decarboxylase
T1 sequence (P53602 whole entry): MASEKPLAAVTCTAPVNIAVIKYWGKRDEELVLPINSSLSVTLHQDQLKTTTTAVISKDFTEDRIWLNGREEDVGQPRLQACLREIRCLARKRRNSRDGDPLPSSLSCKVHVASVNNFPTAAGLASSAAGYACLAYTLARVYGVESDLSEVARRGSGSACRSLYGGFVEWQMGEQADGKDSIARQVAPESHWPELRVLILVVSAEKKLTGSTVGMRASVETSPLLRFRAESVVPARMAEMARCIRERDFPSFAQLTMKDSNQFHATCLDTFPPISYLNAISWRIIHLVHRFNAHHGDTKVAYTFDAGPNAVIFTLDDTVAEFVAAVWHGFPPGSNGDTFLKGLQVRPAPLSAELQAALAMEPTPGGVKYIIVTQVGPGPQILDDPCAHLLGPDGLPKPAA

[2] = target: T1, Diphosphomevalonate decarboxylase; experiment: Compound was evaluated for its inhibitory activity against MevPP decarboxylase

Structure (SMILES)	IC50 [1] [nM]	IC50 [2] [nM]
O=C(O)CSCCOP(=O)(O)OP(=O)(O)O	150	–
CN(CC(=O)O)C(=O)COP(=O)(O)OP(=O)(O)O	–	300
